According to patent US9073919B2, “Pyrazolo pyridine derivatives as NADPH oxidase inhibitors” (GENKYOTEX SA, priority 2007, dated 2015):

Assays:
Assay type in all cases: cell-based, human
NOX [1] = assay: Amplex Red, extracellular hydrogen peroxide, DMSO-differentiated HL60 cells; details: DPI 10 μM, % of the activity in control cells, 'usually'
Method: Human acute myeloid leukemia cell line HL-60 was cultured in RPMI 1640 (Invitrogen) supplemented with 10% heat-inactivated calf serum, 2 mM glutamine, 100 U/mL penicillin (Sigma), and 100 μg streptomycin (Sigma) at 37° C. under a humidified atmosphere of 5% CO2. HL60 differentiation to the neutrophil phenotype was triggered by adding Me2SO (final concentration 1.25% v/v for 6 days) to the culture medium.
(§1) Extracellular hydrogen peroxide was measured using Amplex UltraRed (Molecular Probes). Cells were trypsinized (1× Trypsin-EDTA), collected by centrifugation, and resuspended in HBSS supplemented with 1% glucose. Cells were seeded into black 96-well plates at a density of 50,000 cells in 200 μl testing buffer (HBSS 1% glucose containing 0.005 U/mL horseradish peroxidase (Roche) and 50 μM Amplex Red in the presence or absence of compounds according to the invention. As a control, DPI was included at a final concentration of 10 μM The plates were placed in the fluorescent Optima Fluorescent plate reader and kept at 37° C. during 20 min. Fluorescence was measured for […] with excitation and emission wavelengths of 544 nm and 590 nm respectively. NOX activities were expressed as % of the activity in control cells. Residual activity of DPI-treated cells was usually <10%.

NOX [2] = assay: H2DCF-DA fluorescence in TGF-β stimulated HUVEC; details: % of the activity in control cells, 'usually'
Method: HUVEC are cultured in endothelial basal medium supplemented with hydrocortisone (1 μg/mL, CalbioChem), bovine brain extract (12 μg/mL), gentamicin (50 μg/mL, CalbioChem), amphotericin B (50 ng/mL, CalBioChem EGF (10 ng/mL, and 10% FCS until the fourth passage. When the fifth passage was started, cells were cultured with a lower concentration of FCS (2%) in the absence of EGF, if not indicated otherwise. All experiments were done with cells of the fifth passage. The cells were incubated with OxLDL (oxidized low-density lipoprotein) or its buffer as control for 24 h, before detection of O2^− formation.
HUVEC were plated on coverslips and made quiescent overnight in 0.5% BSA before stimulation with TGF-β. Cells were loaded for 10 minutes with 5 μM CM-H2DCFDA in phenol-red-free medium in the dark and then treated with TGF-β (R&D Systems) in the presence or absence of compounds according to the invention. Cells were then visualized by immunofluorescence microscopy after fixation and staining of the nuclei with DAPI or examined live using confocal microscopy. DCF fluorescence was visualized at an excitation wavelength of 488 nm and emission at 515 to 540 nm. […] For calculation, the absorbance at […] was normalized to absorbance at […] for each individual well. […] NOX activities were expressed as % of the activity in control cells. […]

NOX [3] = assay: Chemiluminescence (luminol) ROS measurement in cells; details: % of the activity in control cells, 'usually'
Method: as §1
ROS was measured using the chemiluminescent probe luminol. Cells were cultured and plated as for Amplex Red except that the Amplex Red agent was replaced by 10 μg/mL luminol (Sigma 09235). Light emission was recorded continuously at 37° C. for 60 minutes using the luminescence function of the FluoStar Optima fluorescent plate reader. The mean of the four blank values was subtracted from each corrected value for each time point. NOX activities were expressed as % of the activity in control cells. […]

NOX [4] = assay: Nitroblue tetrazolium (NBT) superoxide test in cells; details: DPI 10 μM, % of the activity in control cells, 'usually'
Method: Human microglia cell line (HMC3, human microglia clone 3) (Janabi et al, 1995, Neurosci Lett 195:105) were cultured in MEM (Eagle's minimum essential medium) containing 10% FBS with 50 U/ml penicillin G sodium 50 μg/ml streptomycin sulfate, and incubated at 37° C. for 24 hours. IFN-γ (human IFN-γ, Roche. 11 040 596 001) was added to the culture medium for a final concentration of 10 ng/ml 24 h, before detection of O2^− formation. […]
Intracellular and extracellular superoxide was measured by a colorimetric technique using a quantitative nitroblue tetrazolium (NBT) test. SOD-inhibitable conversion of NBT to formazan, a fine blue precipitate, in the presence of superoxide anion was measured using Fluostar Optima spectrometer (BMG labtech). […] The absorption was measured at 630 nm. For calculation, the absorbance at 630 nm was normalized for each individual well. […] NOX activities were expressed as % of the activity in control cells. […]

Measured: Residual activity of DPI-treated cells

c1ccc([I+]c2ccccc2)cc1 [DPI, Diphenyl-iodonium]
< 10%: all assays above
